These results are taken from US10759766B2, “Certain chemical entities, compositions, and methods” (NeuPharma, Inc., priority 2011, dated 2020).

Experiment [1] has as its target BRAF (Homo sapiens (Human), UniProt P15056). In words: Z′-LYTE kinase inhibition assay (Invitrogen), BRAF. It counts as biochemical. The following applies: 1 μM compound, Z′-LYTE method; read-out: % inhibition at 1 μM against BRAF. How it is done:
Inhibitory activities Inhibitory activities of compounds against BRAF, and BRAF V600E were measured by Invitrogen using Z′-LYTE® Method as briefly described in the following. 4× Test compounds are dissolved in 1% DMSO. […] ATP solutions are diluted to a 4×ATP working concentration in Kinase Buffer (50 mM HEPES pH 7.5, 0.01% BRIJ-35, 10 mM MgCl2, 1 mM EGTA). Reaction started by 30-second shaking of mixture consisting of 2.5 μL 4× test compound, […] and 2.5 μL 4×ATP Solution on Bar-coded Corning, low volume NBS, black 384-well plate (Corning Cat. #3676). Then the mixture was incubated for 60-minute at room temperature for the kinase reaction, followed by addition of 5 μL of a 1:1024 dilution of development reagent A and 30-second plate shake. The mixture was then incubated for another 60-minute at room temperature for development reaction. Fluorescence was read by plate reader. IC50 was calculated by plotting the concentration of compound vs the percentage of inhibition in treated wells using GraphPad Prism 5.

Experiment [2] relates to A549 cells. As to the kind of experiment: Inhibition of cancer cell growth, MTT assay, A549. In kind it is cell-based. Conditions: Homo sapiens, A549, 72 h exposure. Summed up: (§1)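 Cells grown in RPMI 1640 with 10% FBS were seeded at about 4000 cells/well, left 24 h, then exposed to compound for 72 h (1% DMSO final). MTT absorbance at 570 nm was compared with viable cells at time of addition to give growth inhibition; IC50 from concentration–inhibition plots, triplicates.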
(Tetrazolium assays rely on reduction of a dye to a coloured formazan, in cell work by metabolically active cells.)

Experiment [3] deals with A375 cells. In words: Inhibition of cancer cell growth, MTT assay, A375. It counts as cell-based. Conditions: Homo sapiens, A-375, 72 h exposure. Summed up:
as §1

Experiment [4] has as its target BRAF V600E (Homo sapiens (Human), UniProt P15056, V600E). In words: Z′-LYTE kinase inhibition assay (Invitrogen), BRAF V600E. In kind it is biochemical. Conditions: Z′-LYTE method; for inhibition at 1 µM: 1 μM compound, read-out: % inhibition at 1 μM against BRAF V600E; for IC50: read-out: IC50 against BRAF V600E. Summed up: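 FRET-based Z′-LYTE peptide phosphorylation format in 50 mM HEPES pH 7.5, 0.01% BRIJ-35, 10 mM MgCl2, 1 mM EGTA with ATP. Kinase reaction 60 min at room temperature, then protease development step 60 min at room temperature before fluorescence read. IC50 from compound concentration versus percent inhibition.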

Experiment [5] deals with KDR (VEGFR2) (Homo sapiens (Human), UniProt P35968). In words: Z′-LYTE kinase inhibition assay (Invitrogen), KDR. In kind it is biochemical. Conditions: Z′-LYTE method; for inhibition at 1 µM: 1 μM compound, read-out: % inhibition at 1 μM against KDR; for IC50: read-out: IC50 against KDR. Summed up: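 Z′-LYTE FRET assay: 10 μL reactions with 0.5–11.7 ng KDR and 2 μM Tyr 01 peptide in 50 mM HEPES pH 7.5, 10 mM MgCl2, 1 mM EGTA, 0.01% BRIJ-35, 1 h at room temperature. Development Reagent B (1:256) added for 60 min, fluorescence read; IC50 from concentration–inhibition curves.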
Sequence of KDR (VEGFR2) (P35968 20-1356): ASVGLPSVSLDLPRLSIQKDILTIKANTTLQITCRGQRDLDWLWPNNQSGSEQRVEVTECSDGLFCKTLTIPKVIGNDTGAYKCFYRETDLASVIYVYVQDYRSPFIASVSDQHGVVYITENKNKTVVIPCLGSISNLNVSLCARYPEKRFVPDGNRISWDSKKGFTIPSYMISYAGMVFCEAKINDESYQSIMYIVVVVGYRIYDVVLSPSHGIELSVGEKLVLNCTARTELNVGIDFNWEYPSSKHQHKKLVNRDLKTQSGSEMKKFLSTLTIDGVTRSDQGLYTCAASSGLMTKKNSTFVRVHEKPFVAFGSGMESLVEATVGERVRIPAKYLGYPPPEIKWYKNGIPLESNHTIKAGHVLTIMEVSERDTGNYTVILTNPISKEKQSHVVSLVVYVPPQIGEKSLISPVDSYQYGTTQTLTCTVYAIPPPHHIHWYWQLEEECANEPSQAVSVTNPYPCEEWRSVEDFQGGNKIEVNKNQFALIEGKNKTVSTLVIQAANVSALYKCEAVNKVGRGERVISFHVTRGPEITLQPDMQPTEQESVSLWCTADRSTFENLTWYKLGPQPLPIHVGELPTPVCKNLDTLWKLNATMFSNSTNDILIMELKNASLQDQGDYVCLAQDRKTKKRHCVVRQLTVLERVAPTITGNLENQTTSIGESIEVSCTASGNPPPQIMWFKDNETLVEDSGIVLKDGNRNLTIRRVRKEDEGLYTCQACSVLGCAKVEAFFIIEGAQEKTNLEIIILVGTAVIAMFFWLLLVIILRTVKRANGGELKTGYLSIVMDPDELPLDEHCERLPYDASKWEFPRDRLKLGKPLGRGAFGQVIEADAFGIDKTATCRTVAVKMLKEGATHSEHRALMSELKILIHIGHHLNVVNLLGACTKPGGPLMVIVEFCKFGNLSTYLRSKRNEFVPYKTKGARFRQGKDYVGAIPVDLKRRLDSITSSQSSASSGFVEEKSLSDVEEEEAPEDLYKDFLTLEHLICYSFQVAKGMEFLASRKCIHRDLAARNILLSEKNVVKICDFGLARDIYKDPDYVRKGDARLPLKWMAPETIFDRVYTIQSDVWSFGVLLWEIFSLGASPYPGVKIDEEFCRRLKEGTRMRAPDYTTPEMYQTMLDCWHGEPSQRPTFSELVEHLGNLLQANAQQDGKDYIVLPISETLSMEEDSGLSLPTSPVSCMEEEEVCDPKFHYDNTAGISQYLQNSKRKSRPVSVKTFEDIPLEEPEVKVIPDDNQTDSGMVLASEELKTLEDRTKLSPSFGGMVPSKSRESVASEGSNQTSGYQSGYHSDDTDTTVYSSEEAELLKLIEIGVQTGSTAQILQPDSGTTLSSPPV

Sequence of BRAF V600E (P15056 whole entry V600E): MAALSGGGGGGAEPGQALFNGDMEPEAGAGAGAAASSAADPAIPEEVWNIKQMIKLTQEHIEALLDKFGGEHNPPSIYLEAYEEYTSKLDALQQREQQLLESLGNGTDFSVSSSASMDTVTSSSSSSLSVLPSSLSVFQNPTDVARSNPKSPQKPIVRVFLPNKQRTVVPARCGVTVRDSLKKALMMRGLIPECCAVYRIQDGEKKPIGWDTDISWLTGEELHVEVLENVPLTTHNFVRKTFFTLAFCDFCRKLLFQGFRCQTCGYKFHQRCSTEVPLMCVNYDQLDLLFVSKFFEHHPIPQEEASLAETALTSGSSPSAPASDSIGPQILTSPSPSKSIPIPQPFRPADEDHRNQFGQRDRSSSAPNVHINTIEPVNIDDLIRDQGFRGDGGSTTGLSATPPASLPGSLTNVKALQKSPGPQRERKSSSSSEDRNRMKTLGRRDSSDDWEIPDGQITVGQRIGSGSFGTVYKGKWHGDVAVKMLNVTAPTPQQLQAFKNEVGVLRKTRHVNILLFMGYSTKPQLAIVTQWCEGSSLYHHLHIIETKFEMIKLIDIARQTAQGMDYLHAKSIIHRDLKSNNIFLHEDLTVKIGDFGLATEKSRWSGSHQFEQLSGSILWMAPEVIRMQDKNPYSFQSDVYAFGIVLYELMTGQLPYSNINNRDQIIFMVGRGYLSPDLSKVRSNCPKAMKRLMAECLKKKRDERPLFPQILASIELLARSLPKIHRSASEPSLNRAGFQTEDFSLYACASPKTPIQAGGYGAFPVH
Sequence of BRAF (P15056 whole entry): as the sequence (P15056 whole entry V600E) above, with E600V counted along it

For `O=C(Nc1ccc(F)c(C(=O)c2ccc3ncc(N4CCOCC4)nc3c2)c1)c1cccc(C(F)(F)F)c1` [Compound C141, N-(4-fluoro-3-(3-morpholinoquinoxaline-6-carbonyl)phenyl)-3-(trifluoromethyl)benzamide], the inhibition (commonly the percentage by which the read-out fell short of the control) at 1 µM is under 70% in experiment [1], over 89% in experiment [4] and over 89% in experiment [5]. Besides, the concentration for half-maximal inhibition (IC50) (in general, the concentration at which inhibition is half-maximal) in experiment [2] is under 2000 nM; in experiment [3], under 1000 nM; in experiment [4] it was under 100 nM; in experiment [5] it was under 100 nM.

With `O=C(Nc1ccc(Cl)c(C(F)(F)F)c1)Nc1cc(F)c(F)c(C(=O)c2ccc3nccnc3c2)c1F` [Compound C007, 1-(4-chloro-3-(trifluoromethyl)phenyl)-3-(2,4,5-trifluoro-3-(quinoxaline-6-carbonyl)phenyl)urea], the inhibition at 1 µM in experiment [1], in experiment [4] and in experiment [5] was under 70% each time. Besides, the results for the half-maximal inhibitory concentration (IC50) in experiment [2] and in experiment [3] were 2000 to 5000 nM and 1000 to 5000 nM, respectively.

Regarding `O=C(Nc1cccc(C(=O)c2ccc3nccnc3c2)c1)Nc1cccc(C(F)(F)F)c1` [Compound C009, 1-(3-(quinoxaline-6-carbonyl)phenyl)-3-(3-(trifluoromethyl)phenyl)urea], the values for the inhibition at 1 µM in experiment [1], in experiment [4] and in experiment [5] were 70 to 89%, 70 to 89% and over 89%, respectively. In addition, the IC50 was 2000 to 5000 nM in experiment [2], over 5000 nM in experiment [3], under 100 nM in experiment [4] and under 100 nM in experiment [5].

As for `O=C(Nc1ccc(F)cc1)Nc1ccc(F)c(C(=O)c2ccc3ncc(N4CCOCC4)nc3c2)c1` [Compound C053, 1-(4-fluoro-3-(3-morpholinoquinoxaline-6-carbonyl)phenyl)-3-(4-fluorophenyl)urea], the inhibition at 1 µM in experiment [1], in experiment [4] and in experiment [5] was over 89% each time. Besides, the IC50 is under 2000 nM in experiment [2], under 1000 nM in experiment [3] and under 100 nM in experiment [5].

As for `O=C(Nc1cc(F)c(F)c(C(=O)c2ccc3nccnc3c2)c1)Nc1ccc(Cl)c(C(F)(F)F)c1` [Compound C023, 1-(4-chloro-3-(trifluoromethyl)phenyl)-3-(3,4-difluoro-5-(quinoxaline-6-carbonyl)phenyl)urea], the inhibition at 1 µM is under 70% in experiment [1], 70 to 89% in experiment [4] and 70 to 89% in experiment [5]. Besides, the half-inhibitory concentration (IC50) is under 2000 nM in experiment [2] and under 1000 nM in experiment [3].

As for `O=C(Nc1cccc(F)c1)Nc1cccc(C(=O)c2ccc3nccnc3c2)c1` [Compound C001, 1-(3-fluorophenyl)-3-(3-(quinoxaline-6-carbonyl)phenyl)urea], the inhibition at 1 µM was 70 to 89% in experiment [1], over 89% in experiment [4] and under 70% in experiment [5]. Also, the IC50 in experiment [2] was under 2000 nM; in experiment [3], 1000 to 5000 nM.

As to `COc1cnc2ccc(C(=O)c3cc(NC(=O)Nc4ccc(F)c(F)c4)ccc3F)cc2n1` [Compound C082, 1-(3,4-difluorophenyl)-3-(4-fluoro-3-(3-methoxyquinoxaline-6-carbonyl)phenyl)urea], the inhibition at 1 µM was under 70% in experiment [1], over 89% in experiment [4] and 70 to 89% in experiment [5]. The IC50 in experiment [2] is 2000 to 5000 nM; in experiment [3], 1000 to 5000 nM.

On to `O=C(Nc1cccc(C(=O)c2ccc3ncc(-c4cccnc4)nc3c2)c1)c1ccc(C(F)(F)F)c(Cl)c1` [Compound C124, 3-chloro-N-(3-(3-(pyridin-3-yl)quinoxaline-6-carbonyl)phenyl)-4-(trifluoromethyl)benzamide], for which the inhibition at 1 µM in experiment [1] was under 70%; in experiment [4], over 89%; in experiment [5], over 89%. Also, the IC50 in experiment [2] was over 5000 nM; in experiment [3] it was over 5000 nM; in experiment [4] it was under 100 nM; in experiment [5] it was under 100 nM.

Take `O=C(Nc1ccc(F)c(C(=O)c2ccc3nccnc3c2)c1Cl)c1ccc(Cl)c(C(F)(F)F)c1` [Compound C112, 4-chloro-N-(2-chloro-4-fluoro-3-(quinoxaline-6-carbonyl)phenyl)-3-(trifluoromethyl)benzamide]: the inhibition at 1 µM in experiment [1], in experiment [4] and in experiment [5] was under 70% each time. Also, the 50% inhibitory concentration (IC50) in experiment [2] and in experiment [3] was over 5000 nM throughout.

Take `O=C(Nc1cncc(Cl)c1)Nc1ccc(F)c(C(=O)c2ccc3ncc(N4CCOCC4)nc3c2)c1` [Compound C081, 1-(5-chloropyridin-3-yl)-3-(4-fluoro-3-(3-morpholinoquinoxaline-6-carbonyl)phenyl)urea]: the inhibition at 1 µM in experiment [1] is over 89%; in experiment [4], over 89%; in experiment [5] it was 70 to 89%. Further, the IC50 is over 5000 nM in experiment [2] and under 1000 nM in experiment [3].

Take `O=C(Nc1cncc(F)c1)Nc1ccc(F)c(C(=O)c2ccc3ncc(N4CCOCC4)nc3c2)c1` [Compound C079, 1-(4-fluoro-3-(3-morpholinoquinoxaline-6-carbonyl)phenyl)-3-(5-fluoropyridin-3-yl)urea]: the inhibition at 1 µM is over 89% in experiment [1], over 89% in experiment [4] and 70 to 89% in experiment [5]. Besides, the IC50 in experiment [2] and in experiment [3] was over 5000 nM each time.

In the case of `O=C(Nc1cc(F)c(F)c(C(=O)c2ccc3nccnc3c2)c1F)c1cccc(C(F)(F)F)c1` [Compound C109, N-(2,4,5-trifluoro-3-(quinoxaline-6-carbonyl)phenyl)-3-(trifluoromethyl)benzamide], the figures for the inhibition at 1 µM in experiment [1], in experiment [4] and in experiment [5] were under 70%, 70 to 89% and 70 to 89%, respectively. The IC50 was 2000 to 5000 nM in experiment [2], over 5000 nM in experiment [3], over 100 nM in experiment [4] and over 100 nM in experiment [5].

Regarding `O=C(Nc1cccc(C(=O)c2ccc3nccnc3c2)c1)c1cccc(F)c1` [Compound C105, 3-fluoro-N-(3-(quinoxaline-6-carbonyl)phenyl)benzamide], the inhibition at 1 µM was under 70% in experiment [1], 70 to 89% in experiment [4] and under 70% in experiment [5]. The IC50 in experiment [2] was under 2000 nM; in experiment [3], 1000 to 5000 nM.

For `O=C(Nc1cccc(Cl)c1)Nc1cccc(C(=O)c2ccc3nccnc3c2)c1` [Compound C003, 1-(3-chlorophenyl)-3-(3-(quinoxaline-6-carbonyl)phenyl)urea], the results for the inhibition at 1 µM in experiment [1], in experiment [4] and in experiment [5] were 70 to 89%, over 89% and 70 to 89%, respectively. Also, the results for the half-maximal inhibitory concentration (IC50) in experiment [2] and in experiment [3] were 2000 to 5000 nM and under 1000 nM, respectively.

As for `O=C(Nc1ccc(F)c(C(=O)c2ccc3nccnc3c2)c1)c1cccc(C(F)(F)F)c1` [Compound C116, N-(4-fluoro-3-(quinoxaline-6-carbonyl)phenyl)-3-(trifluoromethyl)benzamide], the results for the inhibition at 1 µM in experiment [1], in experiment [4] and in experiment [5] were 70 to 89%, over 89% and over 89%, respectively. Further, the IC50 in experiment [2] is 2000 to 5000 nM; in experiment [3], under 1000 nM.

Turning to `O=C(Nc1cccc(C(=O)c2ccc3ncc(N4CCOCC4)nc3c2)c1)Nc1cccc(C(F)(F)F)c1` [Compound C017, 1-(3-(3-morpholinoquinoxaline-6-carbonyl)phenyl)-3-(3-(trifluoromethyl)phenyl)urea], the inhibition at 1 µM is 70 to 89% in experiment [1], over 89% in experiment [4] and over 89% in experiment [5]. Moreover, the IC50 in experiment [2] was under 2000 nM; in experiment [3], under 1000 nM; in experiment [4], under 100 nM; in experiment [5], under 100 nM.

On to `O=C(Nc1cc(F)c(F)c(C(=O)c2ccc3ncc(N4CCOCC4)nc3c2)c1)Nc1ccc(Cl)c(C(F)(F)F)c1` [Compound C041, 1-(4-chloro-3-(trifluoromethyl)phenyl)-3-(3,4-difluoro-5-(3-morpholinoquinoxaline-6-carbonyl)phenyl)urea], for which the results for the inhibition at 1 µM in experiment [1], in experiment [4] and in experiment [5] were under 70%, 70 to 89% and 70 to 89%, respectively. Further, the IC50 was under 2000 nM in experiment [2] and under 1000 nM in experiment [3].
